Experimental data from US20250051347A1, “BIFUNCTIONAL CHIMERIC HETEROCYCLIC COMPOUND AND USE THEREOF AS ANDROGEN RECEPTOR DEGRADER” (Hinova Pharmaceuticals, Inc., priority 2021, published 2025).

Target: T1, androgen receptor (AR) splicing variant AR-v7 (Homo sapiens, UniProt P10275)
T1 construct: The degradation activity of compounds on AR-v7 in 22RV1 cells; host or cells: 22RV1 cells
T1 sequence (P10275 1-644 isoform P10275-3): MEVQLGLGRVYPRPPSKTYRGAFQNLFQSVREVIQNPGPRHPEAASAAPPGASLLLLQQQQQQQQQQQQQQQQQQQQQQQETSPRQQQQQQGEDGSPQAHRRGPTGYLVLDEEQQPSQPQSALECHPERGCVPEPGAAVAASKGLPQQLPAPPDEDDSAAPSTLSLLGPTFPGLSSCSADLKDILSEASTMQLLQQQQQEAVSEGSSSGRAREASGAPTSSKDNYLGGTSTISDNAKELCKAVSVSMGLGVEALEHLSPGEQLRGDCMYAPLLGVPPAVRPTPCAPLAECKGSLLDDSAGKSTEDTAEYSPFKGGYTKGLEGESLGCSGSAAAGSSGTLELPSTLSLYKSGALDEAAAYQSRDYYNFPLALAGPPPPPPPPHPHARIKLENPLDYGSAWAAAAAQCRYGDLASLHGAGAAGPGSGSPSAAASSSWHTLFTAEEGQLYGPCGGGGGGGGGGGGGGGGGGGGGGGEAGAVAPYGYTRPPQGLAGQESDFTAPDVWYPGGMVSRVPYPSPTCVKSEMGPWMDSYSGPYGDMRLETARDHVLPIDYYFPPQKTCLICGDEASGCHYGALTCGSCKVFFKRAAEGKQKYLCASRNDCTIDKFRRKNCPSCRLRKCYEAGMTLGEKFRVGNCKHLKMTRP
Assay: Degradation activity on androgen receptor splicing variant AR-v7 in 22RV1 cells (ELISA)
Assay type: cell-based
Conditions: AR-v7 degradation in 22RV1 cells, 48 h
Experimental: The degradation activity of the compound of the present invention on the androgen receptor splicing variant AR-V7 was analyzed using enzyme-linked immunosorbent assay (ELISA).
The plate was cultured in a 5% CO2 cell incubator at 37° C. for 2 days until the cells adhered to the wall. • 2) The drug was prepared into 10 mM stock solution with dimethylsulfoxide (DMSO). […] The plate was gently shaken and mixed. In addition, negative control wells (only containing culture medium) and positive control wells (only containing cells and DMSO) were set. • 3) After the cells were cultured in an incubator for 48 h, the medium was removed and the cells were rinsed once with ice cold PBS. Then, ice-cold 1× cell lysis buffer was added to each well of the cell culture plate. After the plate was incubated on ice for 15 min, the plate was tapped to mix. • 4) The supernatant of the cell lysate was transferred from the cell culture plate to a […] plate for ELISA. • 5) The newly prepared Capture antibody (green) was mixed with the newly prepared HRP-labeled antibody (red), and then the antibody mixture was added to the above 96-well ELISA plate. • 6) The ELISA plate was sealed with plastic film, and then incubated in a 25° C. incubator for 1 h. • 7) The washing buffer was added to each well, and then TMB substrate was added to each well of the ELISA plate. Subsequently, the plate was cultured in an incubator at 37° C. for 5 min. • 8) 100 μl of stop solution was added to each well of the ELISA plate, and the plate was gently tapped for several seconds. The absorbance was read at 450 nm within 30 min. The data were analyzed by the Dose-response equation in the software GraphPad Prism8, to obtain DC50 and Dmax values.

SMILES	DC50 (class symbols) [nM]	DC50 (numeric values) [nM]
C[C@@H]1CN(c2nccc(COc3ccc(C(C)(C)c4ccc(O[C@H]5C[C@@H](Nc6ccc7c(c6)C(=O)N(C6CCC(=O)NC6=O)C7=O)C5)cc4)cc3)n2)C[C@H](C)N1 (some centres unmarked) [Example 433, 5-(((1s,3s)-3-(4-(2-(4-((2-((3s,5r)-3,5-dimethylpiperazin-1-yl)pyrimidin-4-yl)methoxy)phenyl)propan-2-yl)phenoxy)cyclobutyl)amino)-2-(2,6-dioxopiperidin-3-yl)isoindolin-1,3-dione]	11 to 100	
CC(C)(c1ccc(Oc2ccnc(-n3nccn3)n2)cc1)c1ccc(O[C@H]2C[C@H](Nc3ccc4c(c3)C(=O)N(C3CCC(=O)NC3=O)C4=O)C2)cc1 (some centres unmarked) [Example 469, 5-(((1r,3r)-3-(4-(2-(4-((2-(2H-1,2,3-triazol-2-yl)pyrimidin-4-yl)oxy)phenyl)propan-2-yl)phenoxy)cyclobutyl)amino)-2-(2,6-dioxopiperidin-3-yl)isoindolin-1,3-dione]	11 to 100	
Cc1noc(-c2ncc(Oc3ccc(C4(c5ccc(O[C@H]6C[C@H](Nc7ccc8c(c7)C(=O)N(C7CCC(=O)NC7=O)C8=O)C6)cc5)CCCC4)cc3)cn2)n1 (some centres unmarked) [Example 297]	< 10	
CC(=O)c1nccc(COc2ccc(C(C)(C)c3ccc(OCCCNc4cccc5c4C(=O)N(C4CCC(=O)NC4=O)C5=O)cc3)cc2)n1 (centres unmarked) [Example 344, 4-((3-(4-(2-(4-((2-acetylpyrimidin-4-yl)methoxy)phenyl)isopropan-2-yl)phenoxy)propyl)amino)-2-(2,6-dioxopiperidin-3-yl)isoindolin-1,3-dione]	1000 to 5000	
CC(C)(c1ccc(OCCCNc2ccc3c(c2)C(=O)N(C2CCC(=O)NC2=O)C3=O)cc1)c1ccc(OCc2ccnc(S(C)(=O)=O)n2)cc1 (centres unmarked) [Example 67, 2-(2,6-dioxopiperidin-3-yl)-5-((3-(4-(2-(4-(4-(2-(methanesulfonyl)pyrimidin-4-yl)methoxy)phenyl)propan-2-yl)phenoxy)propyl)amino)isoindolin-1,3-dione]	1000 to 5000	
Cc1noc(-c2cccc(COc3ccc(C(C)(C)c4ccc(O[C@H]5C[C@@H](Nc6ccc7c(c6)C(=O)N(C6CCC(=O)NC6=O)C7=O)C5)cc4)cc3)n2)n1 (some centres unmarked) [Example 472]	11 to 100	
CC(C)(c1ccc(OCc2ccnc(N3CC4(COC4)C3)n2)cc1)c1ccc(C(=O)N2CC(Nc3ccc4c(c3)C(=O)N(C3CCC(=O)NC3=O)C4=O)C2)cc1 (centres unmarked) [Example 503]	11 to 100	
CC(=O)c1nccc(COc2ccc(C(C)(C)c3ccc(OCCCCCCCCOCCN4CCN(c5ccc6c(c5)C(=O)N(C5CCC(=O)NC5=O)C6=O)CC4)cc3)cc2)n1 (centres unmarked) [Example 299, 5-(4-(2-((8-(4-(2-(4-((2-acetylpyrimidin-4-yl)methoxy)phenyl)propan-2-yl)phenoxy)octyl)oxy)ethyl)piperazin-1-yl)-2-(2,6-dioxopiperidin-3-yl)isoindolin-1,3-dione]		> 10000
CN1CCN(c2ncc3c(n2)CN(c2ccc(C(C)(C)c4ccc(O[C@H]5C[C@@H](Nc6ccc7c(c6)C(=O)N(C6CCC(=O)NC6=O)C7=O)C5)cc4)cc2)CC3)CC1 (some centres unmarked) [Example 191]	11 to 100	
CCS(=O)(=O)Nc1nccc(COc2ccc(C(C)(C)c3ccc(OCCCCCCCCOCCCCNc4ccc5c(c4)C(=O)N(C4CCC(=O)NC4=O)C5=O)cc3)cc2)n1 (centres unmarked) [Example 44]	101 to 1000	
CC(C)(c1ccc(Oc2cnc(C(F)(F)F)nc2)cc1)c1ccc(O[C@H]2C[C@H](Nc3ccc4c(c3)C(=O)N(C3CCC(=O)NC3=O)C4=O)C2)cc1 (some centres unmarked) [Example 264]	11 to 100	
CC(C)(c1ccc(OCc2ccnc(NS(C)(=O)=O)n2)cc1)c1ccc(OC2CN(CCCCCOCCCCNc3ccc4c(c3)C(=O)N(C3CCC(=O)NC3=O)C4=O)C2)cc1 (centres unmarked) [Example 14]		> 10000
CCN1CC(Oc2ncnc(Oc3ccc(C(C)(C)c4ccc(O[C@H]5C[C@@H](Nc6ccc7c(c6)C(=O)N(C6CCC(=O)NC6=O)C7=O)C5)cc4)cc3)c2F)C1 (some centres unmarked) [Example 576]	11 to 100	
CC(C)(c1ccc(OCc2ccnc(N3CC4(COC4)C3)n2)cc1)c1ccc(OC[C@H]2CCCN2c2ccc3c(c2)C(=O)N(C2CCC(=O)NC2=O)C3=O)cc1 (stereo partly drawn) [Example 314, 5-((R)-2-((4-(2-(4-((2-(2-oxa-6-azaspiro[3.3]heptan-6-yl)pyrimidin-4-yl)methoxy)phenyl)propan-2-yl)phenoxy)methyl)pyrrolidin-1-yl)-2-(2,6-dioxopiperidin-3-yl)isoindolin-1,3-dione]	1000 to 5000	
CN1CCC2(CCN(c3nccc(COc4ccc(C(C)(C)c5ccc(OCCCCCCCCOCCCCNc6ccc7c(c6)C(=O)N(C6CCC(=O)NC6=O)C7=O)cc5)cc4)n3)C2)C1 (centres unmarked) [Example 384]		> 5000
CC(C)(c1ccc(OCc2ccnc(NS(C)(=O)=O)n2)cc1)c1ccc(OCC2CCN(CCCOCCCNc3ccc4c(c3)C(=O)N(C3CCC(=O)NC3=O)C4=O)CC2)cc1 (centres unmarked) [Example 40]		> 10000
CC(=O)c1nccc(COc2ccc(C(C)(C)c3ccc(N4CC5(CCN(c6ccc7c(c6)C(=O)N(C6CCC(=O)NC6=O)C7=O)CC5)C4)cc3)cc2)n1 (centres unmarked) [Example 559]	1000 to 5000	
CC(=O)c1nccc(COc2ccc(C(C)(C)c3ccc(OCC4CCN(c5cccc6c5C(=O)N(C5CCC(=O)NC5=O)C6=O)C4)cc3)cc2)n1 (centres unmarked) [Example 301, 4-(3-((4-(2-(4-((2-acetylpyrimidin-4-yl)methoxy)phenyl)propan-2-yl)phenoxy)methyl)pyrrolidin-1-yl)-2-(2,6-dioxopiperidin-3-yl)isoindolin-1,3-dione]		> 10000
CC(C)(c1ccc(OCCCCCCCCOCCCCNc2ccc3c(c2)C(=O)N(C2CCC(=O)NC2=O)C3=O)cc1)c1ccc(OCc2ccnc(-n3cccn3)n2)cc1 (centres unmarked) [Example 437, 5-((4-((8-(4-(2-(4-((2-(1H-pyrazol-1-yl)pyrimidin-4-yl)methoxy)phenyl)propan-2-yl)phenoxy)octyl)oxy)butyl)amino)-2-(2,6-dioxopiperidin-3-yl)isoindolin-1,3-dione]		> 10000
CNC(=O)c1noc(COc2ccc(C(C)(C)c3ccc(OCCCNc4ccc5c(c4)C(=O)N(C4CCC(=O)NC4=O)C5=O)cc3)cc2)n1 (centres unmarked) [Example 137, 5-((4-(2-(4-(3-((2-(2,6-dioxopiperidin-3-yl)-1,3-dioxoisoindolin-5-yl)amino)propoxy)phenyl)propan-2-yl)phenoxy)methyl)-N-methyl-1,2,4-oxadiazol-3-carbonylaminomethane]	11 to 100	
CC(C)(c1ccc(OCCCNc2ccc3c(c2)C(=O)N(C2CCC(=O)NC2=O)C3=O)cc1)c1ccc(OCc2nc(C(=O)N3CCCC3)no2)cc1 (centres unmarked) [Example 140, 2-(2,6-dioxopiperidin-3-yl)-5-((3-(4-(2-(4-((3-(pyrrolidin-1-carbonyl)-1,2,4-oxadiazol-5-yl)methoxy)phenyl)propan-2-yl)phenoxy)propyl)amino)isoindolin-1,3-dione]	101 to 1000	
CC(C)(c1ccc(OCC(=O)Nc2ccc3c(c2)C(=O)N(C2CCC(=O)NC2=O)C3=O)cc1)c1ccc(OCc2ccnc(N3CC4(COC4)C3)n2)cc1 (centres unmarked) [Example 568]	11 to 100	
CC(C)(c1ccc(OCc2nc(-n3nccn3)ccc2F)cc1)c1ccc(O[C@H]2C[C@H](Nc3ccc4c(c3)C(=O)N(C3CCC(=O)NC3=O)C4=O)C2)cc1 (some centres unmarked) [Example 284]	11 to 100	
CC(C)(c1ccc(Oc2cc(-n3nccn3)ccn2)cc1)c1ccc(O[C@H]2C[C@H](Nc3ccc4c(c3)C(=O)N(C3CCC(=O)NC3=O)C4=O)C2)cc1 (some centres unmarked) [Example 165, 5-(((1r,3r)-3-(4-(2-((4-(2H-1,2,3-triazol-2-yl)pyridin-2-yl)oxy)phenyl)propan-2-ylphenoxy)cyclobutyl)amino)-2-(2,6-dioxopyridin-3-yl)isoindol-1,3-dione]	11 to 100	
Cc1noc(C)c1-c1nccc(COc2ccc(C(C)(C)c3ccc(O[C@H]4C[C@H](Nc5ccc6c(c5)C(=O)N(C5CCC(=O)NC5=O)C6=O)C4)cc3)cc2)n1 (some centres unmarked) [Example 271]	11 to 100	
C[C@@H]1CN[C@@H](C)CN1c1nccc(COc2ccc(C(C)(C)c3ccc(O[C@H]4C[C@@H](Nc5ccc6c(c5)C(=O)N(C5CCC(=O)NC5=O)C6=O)C4)cc3)cc2)n1 (some centres unmarked) [Example 411]	11 to 100	
